# Legend:
# Test in all cases: KINOMEscan
# Format in all cases: binding
# Settings in all cases: read-out: percent control
# YANK2 = YANK2 (Homo sapiens (Human), UniProt Q9NY57)
# Excerpt: (§1) Example 2. In Vitro Kinase Selectivity Profiling of the Compounds of the Present Disclosure
# CSF1R-autoinhibited = CSF1R-autoinhibited (Homo sapiens (Human), UniProt P07333)
# Excerpt: as §1
# MAP3K1 = MAP3K1 (Homo sapiens (Human), UniProt Q13233)
# Excerpt: as §1
# NEK2 = NEK2 (Homo sapiens (Human), UniProt P51955)
# Excerpt: as §1
# CAMK1B = CAMK1B (Homo sapiens (Human), UniProt Q6P2M8)
# Excerpt: as §1
# BTK = BTK (Homo sapiens (Human), UniProt Q06187)
# Excerpt: as §1
# PLK4 = PLK4 (Homo sapiens (Human), UniProt O00444)
# Excerpt: as §1
# PHKG2 = PHKG2 (Homo sapiens (Human), UniProt P15735)
# Excerpt: as §1
# NEK1 = NEK1 (Homo sapiens (Human), UniProt Q96PY6)
# Excerpt: as §1
# CAMK1D = CAMK1D (Homo sapiens (Human), UniProt Q8IU85)
# Excerpt: as §1
# [1] = biological target: JAK1(JH2domain-pseudokinase) (Homo sapiens (Human), UniProt P23458)
# Excerpt: as §1
# KIT = KIT (Homo sapiens (Human), UniProt P10721)
# Excerpt: as §1
# ERK3 = ERK3 (Homo sapiens (Human), UniProt Q16659)
# Excerpt: as §1
# PRKR = PRKR (Homo sapiens (Human), UniProt P19525)
# Excerpt: as §1
# CAMKK2 = CAMKK2 (Homo sapiens (Human), UniProt Q96RR4)
# Excerpt: as §1
# MRCKA = MRCKA (Homo sapiens (Human), UniProt Q5VT25)
# Excerpt: as §1
# DCAMKL2 = DCAMKL2 (Homo sapiens (Human), UniProt Q8N568)
# Excerpt: as §1
# EGFR(E746-A750del) = EGFR(E746-A750del) (Homo sapiens (Human), UniProt P00533, DEL746-750)
# Excerpt: as §1
# CSNK1E = CSNK1E (Homo sapiens (Human), UniProt P49674)
# Excerpt: as §1
# SGK2 = SGK2 (Homo sapiens (Human), UniProt Q9HBY8)
# Excerpt: as §1
# PKNB(M.tuberculosis) = PKNB(M.tuberculosis) (Mycobacterium tuberculosis (strain ATCC 25618 / H37Rv), UniProt P9WI81)
# Excerpt: as §1
# NLK = NLK (Homo sapiens (Human), UniProt Q9UBE8)
# Excerpt: as §1
# TGFBR1 = TGFBR1 (Homo sapiens (Human), UniProt P36897)
# Excerpt: as §1
# MINK = MINK (Homo sapiens (Human), UniProt Q8N4C8)
# Excerpt: as §1
# SIK = SIK (Homo sapiens (Human), UniProt P57059)
# Excerpt: as §1
# DLK = DLK (Homo sapiens (Human), UniProt Q12852)
# Excerpt: as §1
# CDK7 = CDK7 (Homo sapiens (Human), UniProt P50613)
# Excerpt: as §1
# TNK1 = TNK1 (Homo sapiens (Human), UniProt Q13470)
# Excerpt: as §1
# EPHA8 = EPHA8 (Homo sapiens (Human), UniProt P29322)
# Excerpt: as §1
# LIMK1 = LIMK1 (Homo sapiens (Human), UniProt P53667)
# Excerpt: as §1
# SYK = SYK (Homo sapiens (Human), UniProt P43405)
# Excerpt: as §1
# EPHA1 = EPHA1 (Homo sapiens (Human), UniProt P21709)
# Excerpt: as §1
# RIPK5 = RIPK5 (Homo sapiens (Human), UniProt Q6XUX3)
# Excerpt: as §1
# RIPK4 = RIPK4 (Homo sapiens (Human), UniProt P57078)
# Excerpt: as §1
# RET(M918T) = RET(M918T) (Homo sapiens (Human), UniProt P07949, M918T)
# Excerpt: as §1
# CAMK2D = CAMK2D (Homo sapiens (Human), UniProt Q13557)
# Excerpt: as §1
# PIP5K1C = PIP5K1C (Homo sapiens (Human), UniProt O60331)
# Excerpt: as §1
# TAK1 = TAK1 (Homo sapiens (Human), UniProt O43318)
# Excerpt: as §1
# NEK6 = NEK6 (Homo sapiens (Human), UniProt Q9HC98)
# Excerpt: as §1
# CLK1 = CLK1 (Homo sapiens (Human), UniProt P49759)
# Excerpt: as §1
# Sequence of PRKR (P19525 whole entry): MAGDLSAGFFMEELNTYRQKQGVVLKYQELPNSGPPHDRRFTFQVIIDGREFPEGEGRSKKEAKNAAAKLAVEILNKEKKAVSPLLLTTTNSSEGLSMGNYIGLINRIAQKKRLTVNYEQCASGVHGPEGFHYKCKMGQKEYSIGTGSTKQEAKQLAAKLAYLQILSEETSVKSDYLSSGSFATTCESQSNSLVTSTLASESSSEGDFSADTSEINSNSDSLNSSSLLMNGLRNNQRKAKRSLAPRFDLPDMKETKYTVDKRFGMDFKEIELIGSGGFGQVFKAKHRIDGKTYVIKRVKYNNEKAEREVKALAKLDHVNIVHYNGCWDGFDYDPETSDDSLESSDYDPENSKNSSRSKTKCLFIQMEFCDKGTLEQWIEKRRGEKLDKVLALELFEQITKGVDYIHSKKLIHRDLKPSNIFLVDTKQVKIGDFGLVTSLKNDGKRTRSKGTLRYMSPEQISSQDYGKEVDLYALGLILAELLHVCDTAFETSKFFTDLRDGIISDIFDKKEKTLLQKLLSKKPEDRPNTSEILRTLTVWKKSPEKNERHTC
# Sequence of MINK (Q8N4C8 whole entry): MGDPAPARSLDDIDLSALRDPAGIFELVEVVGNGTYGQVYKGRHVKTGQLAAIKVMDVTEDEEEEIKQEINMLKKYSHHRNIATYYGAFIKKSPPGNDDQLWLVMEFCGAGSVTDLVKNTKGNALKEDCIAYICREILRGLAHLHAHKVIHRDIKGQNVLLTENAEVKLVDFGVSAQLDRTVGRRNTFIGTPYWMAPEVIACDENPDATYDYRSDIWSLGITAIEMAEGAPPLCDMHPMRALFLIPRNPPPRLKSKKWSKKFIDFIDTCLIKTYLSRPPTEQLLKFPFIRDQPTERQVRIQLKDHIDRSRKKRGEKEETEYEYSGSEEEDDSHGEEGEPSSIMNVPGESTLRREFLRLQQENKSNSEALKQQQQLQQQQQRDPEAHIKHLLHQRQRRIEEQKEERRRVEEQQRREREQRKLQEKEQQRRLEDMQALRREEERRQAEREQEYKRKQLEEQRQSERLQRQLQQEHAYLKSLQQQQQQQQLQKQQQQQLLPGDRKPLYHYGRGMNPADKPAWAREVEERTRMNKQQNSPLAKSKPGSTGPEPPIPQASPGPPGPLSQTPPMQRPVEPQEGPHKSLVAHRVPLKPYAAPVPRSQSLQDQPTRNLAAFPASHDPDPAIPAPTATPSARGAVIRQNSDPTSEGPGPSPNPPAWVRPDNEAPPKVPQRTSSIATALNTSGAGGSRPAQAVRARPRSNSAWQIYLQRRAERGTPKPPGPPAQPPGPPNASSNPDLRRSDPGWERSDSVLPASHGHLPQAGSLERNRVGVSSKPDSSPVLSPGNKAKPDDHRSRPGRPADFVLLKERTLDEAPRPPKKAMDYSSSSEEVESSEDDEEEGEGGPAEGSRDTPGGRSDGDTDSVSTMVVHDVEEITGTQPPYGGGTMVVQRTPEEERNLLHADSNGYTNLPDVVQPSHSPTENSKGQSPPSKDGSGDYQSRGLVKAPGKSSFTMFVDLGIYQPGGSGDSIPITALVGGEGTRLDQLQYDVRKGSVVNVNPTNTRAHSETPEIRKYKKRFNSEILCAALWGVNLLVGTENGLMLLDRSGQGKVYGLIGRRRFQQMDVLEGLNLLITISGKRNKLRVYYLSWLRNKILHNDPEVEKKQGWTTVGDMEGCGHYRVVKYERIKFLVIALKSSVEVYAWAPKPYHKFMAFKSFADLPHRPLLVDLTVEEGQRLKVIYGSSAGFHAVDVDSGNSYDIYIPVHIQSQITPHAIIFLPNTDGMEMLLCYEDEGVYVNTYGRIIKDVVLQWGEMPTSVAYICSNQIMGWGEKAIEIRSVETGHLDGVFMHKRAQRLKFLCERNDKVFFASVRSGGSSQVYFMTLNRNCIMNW
# Sequence of MRCKA (Q5VT25 whole entry): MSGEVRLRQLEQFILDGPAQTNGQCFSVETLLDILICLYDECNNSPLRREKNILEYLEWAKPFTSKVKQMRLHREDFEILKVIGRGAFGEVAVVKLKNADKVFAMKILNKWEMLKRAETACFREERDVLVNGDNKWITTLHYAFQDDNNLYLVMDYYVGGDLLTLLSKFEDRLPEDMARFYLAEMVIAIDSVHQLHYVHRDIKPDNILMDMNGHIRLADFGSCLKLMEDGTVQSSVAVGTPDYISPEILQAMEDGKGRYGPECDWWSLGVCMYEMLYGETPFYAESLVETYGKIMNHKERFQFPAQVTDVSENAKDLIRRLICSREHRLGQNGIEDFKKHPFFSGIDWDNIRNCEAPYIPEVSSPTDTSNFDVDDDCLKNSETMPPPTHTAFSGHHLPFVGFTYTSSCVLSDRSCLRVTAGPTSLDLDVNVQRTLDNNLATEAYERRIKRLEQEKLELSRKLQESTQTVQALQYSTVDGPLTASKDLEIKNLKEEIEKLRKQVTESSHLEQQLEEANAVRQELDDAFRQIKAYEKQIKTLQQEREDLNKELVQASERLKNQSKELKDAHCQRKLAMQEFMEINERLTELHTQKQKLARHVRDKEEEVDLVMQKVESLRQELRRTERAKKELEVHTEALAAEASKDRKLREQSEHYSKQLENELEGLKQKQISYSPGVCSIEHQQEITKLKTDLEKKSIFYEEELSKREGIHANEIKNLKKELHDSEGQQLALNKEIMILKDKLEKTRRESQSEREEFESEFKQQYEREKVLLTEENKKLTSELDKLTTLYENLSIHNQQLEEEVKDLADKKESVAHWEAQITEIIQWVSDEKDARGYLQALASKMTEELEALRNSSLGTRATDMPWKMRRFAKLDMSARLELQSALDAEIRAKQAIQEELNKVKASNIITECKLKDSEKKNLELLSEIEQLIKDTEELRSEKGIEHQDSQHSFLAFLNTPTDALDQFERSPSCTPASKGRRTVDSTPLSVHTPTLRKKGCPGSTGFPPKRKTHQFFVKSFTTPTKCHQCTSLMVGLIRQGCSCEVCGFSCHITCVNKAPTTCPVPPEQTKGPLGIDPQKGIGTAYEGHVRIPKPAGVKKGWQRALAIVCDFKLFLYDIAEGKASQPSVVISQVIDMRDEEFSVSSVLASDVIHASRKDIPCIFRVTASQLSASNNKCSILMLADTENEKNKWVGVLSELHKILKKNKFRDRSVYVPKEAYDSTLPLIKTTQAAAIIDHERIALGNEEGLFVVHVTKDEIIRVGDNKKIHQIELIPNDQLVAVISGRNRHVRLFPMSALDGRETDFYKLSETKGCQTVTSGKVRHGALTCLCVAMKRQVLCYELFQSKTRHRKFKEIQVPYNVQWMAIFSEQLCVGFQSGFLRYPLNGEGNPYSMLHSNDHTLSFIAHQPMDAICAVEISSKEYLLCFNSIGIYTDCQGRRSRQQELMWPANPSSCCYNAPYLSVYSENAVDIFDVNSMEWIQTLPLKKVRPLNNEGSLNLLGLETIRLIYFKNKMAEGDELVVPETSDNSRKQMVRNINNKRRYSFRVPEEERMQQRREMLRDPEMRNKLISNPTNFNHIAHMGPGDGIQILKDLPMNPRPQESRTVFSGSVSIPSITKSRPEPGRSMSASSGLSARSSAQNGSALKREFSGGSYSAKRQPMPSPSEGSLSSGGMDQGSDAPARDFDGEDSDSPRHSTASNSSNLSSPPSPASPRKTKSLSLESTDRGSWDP
# Sequence of NLK (Q9UBE8 whole entry): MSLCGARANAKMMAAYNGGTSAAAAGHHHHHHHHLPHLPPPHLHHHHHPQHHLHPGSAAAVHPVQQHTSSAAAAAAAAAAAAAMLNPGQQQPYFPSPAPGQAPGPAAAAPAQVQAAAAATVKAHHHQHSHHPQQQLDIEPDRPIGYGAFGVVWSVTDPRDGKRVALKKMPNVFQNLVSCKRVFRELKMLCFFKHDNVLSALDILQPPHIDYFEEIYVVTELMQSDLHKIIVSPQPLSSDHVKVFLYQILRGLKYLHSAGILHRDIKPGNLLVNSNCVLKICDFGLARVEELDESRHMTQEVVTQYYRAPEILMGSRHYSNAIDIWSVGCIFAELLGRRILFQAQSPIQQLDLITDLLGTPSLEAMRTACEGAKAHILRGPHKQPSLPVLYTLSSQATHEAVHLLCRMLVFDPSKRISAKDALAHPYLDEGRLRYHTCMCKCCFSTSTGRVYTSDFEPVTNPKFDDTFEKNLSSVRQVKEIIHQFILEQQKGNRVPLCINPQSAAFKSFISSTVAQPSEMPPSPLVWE
# Sequence of CAMK2D (Q13557 whole entry): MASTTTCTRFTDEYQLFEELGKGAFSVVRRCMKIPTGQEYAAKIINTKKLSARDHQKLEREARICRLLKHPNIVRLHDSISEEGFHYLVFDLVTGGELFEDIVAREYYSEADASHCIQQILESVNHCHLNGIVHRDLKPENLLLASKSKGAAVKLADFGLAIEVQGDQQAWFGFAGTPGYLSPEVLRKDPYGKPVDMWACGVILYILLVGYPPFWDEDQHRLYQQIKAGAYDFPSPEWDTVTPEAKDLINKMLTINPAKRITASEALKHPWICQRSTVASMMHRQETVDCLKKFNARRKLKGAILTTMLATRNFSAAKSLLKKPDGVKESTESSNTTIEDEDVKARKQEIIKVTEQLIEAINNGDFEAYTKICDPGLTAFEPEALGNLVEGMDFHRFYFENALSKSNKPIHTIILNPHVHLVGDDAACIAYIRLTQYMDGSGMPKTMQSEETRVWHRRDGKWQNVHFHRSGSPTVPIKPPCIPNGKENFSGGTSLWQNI
# Sequence of SGK2 (Q9HBY8 whole entry): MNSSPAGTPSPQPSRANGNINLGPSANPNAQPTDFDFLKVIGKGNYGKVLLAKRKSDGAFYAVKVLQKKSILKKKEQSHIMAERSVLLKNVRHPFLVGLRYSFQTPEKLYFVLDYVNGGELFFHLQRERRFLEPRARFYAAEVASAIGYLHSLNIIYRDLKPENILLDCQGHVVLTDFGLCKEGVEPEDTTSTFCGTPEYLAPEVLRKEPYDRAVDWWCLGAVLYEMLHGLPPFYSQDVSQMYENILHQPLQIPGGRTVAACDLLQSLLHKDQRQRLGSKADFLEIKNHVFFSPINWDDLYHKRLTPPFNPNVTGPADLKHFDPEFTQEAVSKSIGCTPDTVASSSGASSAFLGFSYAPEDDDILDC
SMILES,remaining binding at 1 µM (YANK2),remaining binding at 1 µM (CSF1R-autoinhibited),remaining binding at 1 µM (MAP3K1),remaining binding at 1 µM (NEK2),remaining binding at 1 µM (CAMK1B),remaining binding at 1 µM (BTK),remaining binding at 1 µM (PLK4),remaining binding at 1 µM (PHKG2),remaining binding at 1 µM (NEK1),remaining binding at 1 µM (CAMK1D),remaining binding at 1 µM [1],remaining binding at 1 µM (KIT),remaining binding at 1 µM (ERK3),remaining binding at 1 µM (PRKR),remaining binding at 1 µM (CAMKK2),remaining binding at 1 µM (MRCKA),remaining binding at 1 µM (DCAMKL2),remaining binding at 1 µM (EGFR(E746-A750del)),remaining binding at 1 µM (CSNK1E),remaining binding at 1 µM (SGK2),also measured
CCN1CCN(Cc2ccc(Nc3nc4ccc(Oc5ccnc(NC(C)=O)c5)cc4n3C)cc2C(F)(F)F)CC1 [Compound I-2],100%,52%,77%,97%,50%,78%,92%,85%,84%,85%,97%,0%,94%,39%,100%,100%,89%,91%,90%,89%,remaining binding at 1 µM (PKNB(M.tuberculosis)): 80%; remaining binding at 1 µM (NLK): 84%; remaining binding at 1 µM (TGFBR1): 100%; remaining binding at 1 µM (MINK): 92%; remaining binding at 1 µM (SIK): 95%; remaining binding at 1 µM (DLK): 100%; remaining binding at 1 µM (CDK7): 45%; remaining binding at 1 µM (TNK1): 76%; remaining binding at 1 µM (EPHA8): 43%; remaining binding at 1 µM (LIMK1): 100%; remaining binding at 1 µM (SYK): 85%; remaining binding at 1 µM (EPHA1): 100%; remaining binding at 1 µM (RIPK5): 69%; remaining binding at 1 µM (RIPK4): 86%; remaining binding at 1 µM (RET(M918T)): 0.8%; remaining binding at 1 µM (CAMK2D): 100%; remaining binding at 1 µM (PIP5K1C): 81%; remaining binding at 1 µM (TAK1): 28%; remaining binding at 1 µM (NEK6): 93%; remaining binding at 1 µM (CLK1): 87%
"CCN1CCN(Cc2ccc(Nc3nc4ccc(Oc5ccnc(NC(C)=O)c5)c(C)c4n3C)cc2C(F)(F)F)CC1 [Compound I-6, N-(4-(2-(4-((4-ethylpiperazin-1-yl)methyl)-3-(trifluoromethyl)phenylamino)-1,7-dimethyl-1H-benzo[d]imidazol-6-yloxy)pyridin-2-yl)acetamide]",91%,68%,86%,91%,43%,88%,100%,100%,79%,100%,82%,0.55%,94%,64%,99%,98%,100%,89%,66%,85%,remaining binding at 1 µM (PKNB(M.tuberculosis)): 82%; remaining binding at 1 µM (NLK): 40%; remaining binding at 1 µM (TGFBR1): 95%; remaining binding at 1 µM (MINK): 59%; remaining binding at 1 µM (SIK): 98%; remaining binding at 1 µM (DLK): 100%; remaining binding at 1 µM (CDK7): 15%; remaining binding at 1 µM (TNK1): 82%; remaining binding at 1 µM (EPHA8): 2.5%; remaining binding at 1 µM (LIMK1): 65%; remaining binding at 1 µM (SYK): 92%; remaining binding at 1 µM (EPHA1): 46%; remaining binding at 1 µM (RIPK5): 61%; remaining binding at 1 µM (RIPK4): 97%; remaining binding at 1 µM (RET(M918T)): 0.15%; remaining binding at 1 µM (CAMK2D): 85%; remaining binding at 1 µM (PIP5K1C): 85%; remaining binding at 1 µM (TAK1): 10%; remaining binding at 1 µM (NEK6): 99%; remaining binding at 1 µM (CLK1): 94%

# — patent US12522583B2, “Benzimidazole derivatives and aza-benzimidazole derivatives as Janus kinase 2 inhibitors and uses thereof” (Dana-Farber Cancer Institute, Inc., priority 2018, dated 2026)
